23 compounds from ChEMBL document CHEMBL1136427, “Unique spirocyclopiperazinium salt I: synthesis and structure-activity relationship of spirocyclopiperazinium salts as analgesics” (2003) can be followed below.

Assay type in all cases: functional
Assay [1] concerns Mus sp. Briefly: Sedative activity was evaluated in mice after s.c. administration of 20 mg/kg. The conditions noted are these: for inhibition in vivo at 20 mg/kg: Mus sp., sc; for Inhibition: 20 mg/kg.
Assay [2] deals with Mus sp. The assay is described as follows: Analgesic activity was evaluated in mice after s.c. administration of 20 mg/kg. As to conditions: for inhibition in vivo at 20 mg/kg: Mus sp., sc; for Inhibition: 20 mg/kg.
In assay [3] the test system is Mus sp. The assay is described as follows: Sedative activity was evaluated in mice after s.c. administration of 10 mg/kg. As to conditions: sc.
Assay [4] concerns Mus sp. Briefly: Analgesic activity was evaluated in mice after s.c. administration of 10 mg/kg. As to conditions: sc.

Take `c1ccc(OCCCCN2CC[N+]3(CCCC3)CC2)cc1`: the values for the inhibition in vivo at 20 mg/kg with Mus sp. [1] and in the assay with Mus sp. [2] were 4% and 9%, respectively.

In the case of `C=CCN1CC[N+]2(CCCC2)CC1`, the inhibition in vivo – broadly, the change of the read-out against control, counted positive when it falls – at 10 mg/kg in the assay on Mus sp. [3] worked out at 0%; in the assay with Mus sp. [4], 45%. The values for the inhibition in vivo at 20 mg/kg with Mus sp. [1] and in the assay with Mus sp. [2] were 0% and 100%, respectively.

`O=C1CCC(=O)N1CCCN1CC[N+]2(CCCC2)CC1`: the inhibition in vivo at 20 mg/kg stood at 10% with Mus sp. [1] and 20% with Mus sp. [2].

`O=C(CCN1CC[N+]2(CCCC2)CC1)c1ccc(O)cc1`: the inhibition in vivo at 20 mg/kg turned out to be 85% in the assay on Mus sp. [1] and 100% in the assay on Mus sp. [2]. This compound also registered an inhibition in vivo at 10 mg/kg with Mus sp. [4] of 77%.

Regarding `O=C(CCN1CC[N+]2(CCCC2)CC1)c1ccoc1`, the inhibition in vivo at 20 mg/kg in the assay with Mus sp. [1] was found to be 0%; in the assay on Mus sp. [2], 15%.

For the compound `O=C(CCN1CC[N+]2(CCCC2)CC1)c1cccc(O)c1`, the inhibition in vivo at 20 mg/kg came out at 13% in the assay with Mus sp. [1] and 14% with Mus sp. [2].

As for `O=C(CCN1CC[N+]2(CCCC2)CC1)c1cccc([N+](=O)[O-])c1`, the inhibition in vivo at 20 mg/kg in the assay with Mus sp. [1] is 0%; with Mus sp. [2], 59%.

Regarding `O=[N+]([O-])c1cccc(/C=C/CN2CC[N+]3(CCCC3)CC2)c1`, the results for the inhibition in vivo at 20 mg/kg in the assay with Mus sp. [1] and in the assay on Mus sp. [2] were 12% and 32%, respectively.

Turning to `C=C(C)CN1CC[N+]2(CCCC2)CC1`, the inhibition in vivo at 20 mg/kg in the assay with Mus sp. [1] and in the assay on Mus sp. [2] was 0% in each case.

Regarding `O=C(CCN1CC[N+]2(CCCC2)CC1)c1ccccc1`, the inhibition in vivo at 20 mg/kg stood at 11% in the assay with Mus sp. [1] and 25% in the assay with Mus sp. [2].

Consider `Clc1ccc(/C=C/CN2CC[N+]3(CCCC3)CC2)cc1`, for which the inhibition in vivo at 20 mg/kg in the assay with Mus sp. [1] amounted to 12%; in the assay with Mus sp. [2] it was 19%.

As for `Cc1ccc(C(=O)CCN2CC[N+]3(CCCC3)CC2)cc1`, the inhibition in vivo at 20 mg/kg with Mus sp. [1] came out at 14%; with Mus sp. [2], 25%.

For the compound `OCCN1CC[N+]2(CCCC2)CC1`, the inhibition in vivo at 20 mg/kg in the assay on Mus sp. [1] amounted to 0%; in the assay with Mus sp. [2] it was 10%.

Turning to `O=[N+]([O-])c1ccc(/C=C/CN2CC[N+]3(CCCC3)CC2)cc1`, the inhibition in vivo at 20 mg/kg with Mus sp. [1] is 10%; with Mus sp. [2] it was 24%.

In the case of `O=C(CCN1CC[N+]2(CCCC2)CC1)c1ccsc1`, the inhibition in vivo at 20 mg/kg in the assay on Mus sp. [1] was 3%; in the assay with Mus sp. [2], 12%.

`CCN1CC[N+]2(CCCC2)CC1`: the inhibition in vivo at 20 mg/kg in the assay on Mus sp. [1] and in the assay on Mus sp. [2] was 0% in each case.

`Clc1cccc(/C=C/CN2CC[N+]3(CCCC3)CC2)c1`: the results for the inhibition in vivo at 20 mg/kg in the assay on Mus sp. [1] and with Mus sp. [2] were 51% and 42%, respectively.

Consider `Clc1ccccc1/C=C/CN1CC[N+]2(CCCC2)CC1`, for which the inhibition in vivo at 20 mg/kg in the assay on Mus sp. [1] came to 59%; with Mus sp. [2], 27%.

`C1CC[N+]2(C1)CCN(CCC1OCCO1)CC2`: the results for the inhibition in vivo at 20 mg/kg in the assay with Mus sp. [1] and in the assay on Mus sp. [2] were 25% and 36%, respectively.

As for `C(=C\c1ccccc1)/CN1CC[N+]2(CCCC2)CC1`, the inhibition in vivo at 20 mg/kg in the assay with Mus sp. [1] came out at 33%; with Mus sp. [2], 0%.

As for `O=C(CCN1CC[N+]2(CCCC2)CC1)c1ccc([N+](=O)[O-])cc1`, the values for the inhibition in vivo at 20 mg/kg in the assay on Mus sp. [1] and in the assay with Mus sp. [2] were 35% and 12%, respectively.

On to `OC(CCl)CN1CC[N+]2(CCCC2)CC1.[Br-]` (stereo in doubt; 3), for which the Inhibition – broadly, the change of the read-out against control, counted positive when it falls – in the assay with Mus sp. [1] is listed as 57%; in the assay with Mus sp. [2], 64%.

For the compound `OC(CCl)CN1CC[N+]2(CCCC2)CC1.[Br-]` (stereo in doubt; 7a), the Inhibition in the assay with Mus sp. [1] and with Mus sp. [2] was 0% in each case.
